Type in all cases: cell-based
The test system of assay [1] is Aspergillus niger (A. niger—ATCC 16404). Put plainly: Synergy test, microtiter plate high resolution MIC assay, mold in PDB medium. Also noted: key to SI (synergy index): SI = Qa/QA + Qb/QB; >1 antagonism, lower SI = greater synergy; Qb (Second Component B) / Qa (First Component A): unit: ppm. Particulars: for MIC: Aspergillus niger. The procedure: (§1) When the sum of Qa/QA and Qb/QB is greater than one, antagonism is indicated. […] The lower the SI, the greater the synergy shown by that particular mixture. The minimum inhibitory concentration (MIC) of a microbicide is the lowest concentration tested under a specific set of conditions that prevents the growth of added microorganisms.
(§2) Synergy tests were conducted using standard microtiter plate assays with media designed for optimal growth of the test microorganism. Minimal salt medium supplemented with 0.2% glucose and 0.1% yeast extract (M9GY medium) was used for testing bacteria; Potato Dextrose Broth (PDB medium) was used for testing yeast and mold. In this method, a wide range of combinations of microbicides and other personal care raw materials was tested by conducting high resolution MIC assays in the presence of various concentrations of BBIT or MBIT. High resolution MICs were determined by adding varying amounts of microbicide to one column of a microtitre plate and doing subsequent […] dilutions using an automated liquid handling system to obtain a series of endpoints ranging from 2 ppm to 10,000 ppm active ingredient.
(§3) The bacteria were used at a concentration of about 5 ×10^6 bacteria per mL and the yeast and mold at 5×10^5 fungi per mL. These microorganisms are representative of natural contaminants in many consumer and industrial applications. […] (yeast and mold) or 30° C. (bacteria).
(§4) In each test, First Component (A) was BBIT and the Second Component (B) was the other commercial microbicide.
(§5) In each test, First Component (A) was MBIT and the Second Component (B) was the other commercial microbicide.

Assay [2] has as its system Escherichia coli (E. coli—ATCC #8739). Put plainly: Synergy test, microtiter plate high resolution MIC assay, bacterium in M9GY medium. Also noted: key to SI (synergy index): SI = Qa/QA + Qb/QB; >1 antagonism, lower SI = greater synergy; Qa (First Component A) / Qb (Second Component B): unit: ppm. To be noted: for MIC: Escherichia coli. The procedure: as §1, §2, §3, §4, §5

The subject of assay [3] is Candida albicans (C. albicans—ATCC 10231). In words: Synergy test, microtiter plate high resolution MIC assay, yeast in PDB medium. Also noted: key to SI (synergy index): SI = Qa/QA + Qb/QB; >1 antagonism, lower SI = greater synergy; Qb (Second Component B) / Qa (First Component A): unit: ppm. Particulars: for MIC: Candida albicans. On the procedure: as §1, §2, §3, §4, §5

Setting [4] is: A=MBIT, B=dithio-2,2′-bis(N-methylbenzamide) (DTBMA), A. niger 16404 - PDB, 3 days.
Where [5] appears, read: A=MBIT, B=dithio-2,2′-bis(N-methylbenzamide) (DTBMA), E. coli 8739 - M9GY, 24 hours.
Setting [6] is: A=MBIT, B=dithio-2,2′-bis(N-methylbenzamide) (DTBMA), C. albicans 10231 - PDB, 24 hours.
Where [7] appears, read: A. niger 16404, PDB, 7 days, 25° C.
Setting [8] is: A=MBIT, B=Benzalkonium chloride (Hyamine 3500), A. niger 16404 - PDB, 4 days.
Where [9] appears, read: A=MBIT, B=Benzalkonium chloride (Hyamine 3500), E. coli 8739 - M9GY, 24 hours.
[10] abbreviates: A=MBIT, B=Benzalkonium chloride (Hyamine 3500), C. albicans 10231 - PDB, 24 hours.
[11] abbreviates: A=MBIT, B=Benzyl alcohol, A. niger 16404 - PDB, 4 days.
Where [12] appears, read: A=MBIT, B=Benzyl alcohol, E. coli 8739 - M9GY, 24 hours.
The mark [13] stands for this setting: ATCC8739, E. coli 8739, M9GY, 24 hours, 30° C., read-out: MIC of the component acting alone (QA / QB).
The mark [14] stands for this setting: A=MBIT, B=Benzyl alcohol, C. albicans 10231 - PDB, 48 hours.
The mark [15] stands for this setting: ATCC16404, 168 h, A. niger 16404, PDB, 7 days, alone where Qa = 0, otherwise in the mixture, read-out: Qb (concentration of second component producing the end point, MIC).
Where [16] appears, read: ATCC8739, E. coli 8739, M9GY, 24 hours, alone where Qa = 0, otherwise in the mixture, read-out: Qb (concentration of second component producing the end point, MIC).
Setting [17] is: C. albicans 10231, PDB, 24 hours.
Where [18] appears, read: ATCC10231, C. albicans 10231, PDB, 24 hours, alone where Qa = 0, otherwise in the mixture, read-out: Qb (concentration of second component producing the end point, MIC).
The mark [19] stands for this setting: A=MBIT, B=Benzisothiazolinone (BIT), A. niger 16404 - PDB, 7 days.
Where [20] appears, read: A=MBIT, B=Benzisothiazolinone (BIT), E. coli 8739 - M9GY, 24 hours.
[21] abbreviates: A=MBIT, B=Benzisothiazolinone (BIT), C. albicans 10231 - PDB, 48 hours.

Counter-ions that a name gives are not always drawn. Like-named read-outs stand apart in the source and are kept apart here.

As for `CNC(=O)c1ccccc1SSc1ccccc1C(=O)NC` [DTBMA, dithio-2,2′-bis(N-methylbenzamide)], the SI was 1.00 in assay [1] (A. niger 16404 - PDB, 7 days, BBIT + DTBMA); 1.00 in assay [2] (E. coli 8739 - M9GY, 48 hours, BBIT + DTBMA); 1.00 in assay [3] (C. albicans 10231 - PDB, 24 hours, BBIT + DTBMA). Further, the “Qb (Second Component B = DTBMA)” value in assay [1] (A. niger 16404 - PDB, 7 days, DTBMA alone (Qa 0) or in mixture with BBIT) is 1000; in assay [2] (E. coli 8739 - M9GY, 48 hours, DTBMA alone (Qa 0) or in mixture with BBIT) it was 60; in assay [3] (C. albicans 10231 - PDB, 24 hours, DTBMA alone (Qa 0) or in mixture with BBIT), 2000. Moreover, the “Qb (Second Component B)” value in assay [1] (setting [4]) is reported as 800; in assay [2] (setting [5]), 80; in assay [3] (setting [6]) it was 2000. The “SI (synergy index)” value in assay [1] (setting [4]), in assay [2] (setting [5]) and in assay [3] (setting [6]) was 1.00 throughout.
Consider Benzalkonium chloride, for which the “MIC of the component acting alone (QA / QB)” value is given as 200 ppm in assay [1] (setting [7]); 3 ppm in assay [2] (E. coli 8739, M9GY, 48 hours, 30° C.); 60 ppm in assay [3] (C. albicans 10231, PDB, 24 hours, 25° C.). Moreover, the “Qb (Second Component B)” value in assay [1] (setting [8]) is given as 200; in assay [2] (setting [9]), 10; in assay [3] (setting [10]), 60. The “SI (synergy index)” value in assay [1] (setting [8]), in assay [2] (setting [9]) and in assay [3] (setting [10]) was 1.00 in each case.
As to `O=C([O-])CC(O)(CC(=O)[O-])C(=O)[O-].[Na+].[Na+].[Na+]` [Sodium citrate], the figures for the “Qb (Second Component B)” value in assay [1], in assay [2] and in assay [3] were 10000, 20000 and 10000, respectively. In addition, the “Qb (concentration of second component producing the end point, MIC)” value in assay [1] is 10000 ppm; in assay [2], 20000 ppm; in assay [3], 10000 ppm.
For the compound `OCc1ccccc1` [Benzyl alcohol], the “Qb (Second Component B)” value in assay [1] (setting [11]) came to 6000; in assay [2] (setting [12]), 5000; in assay [3] (setting [14]) it was 4000. In addition, the “SI (synergy index)” value in assay [1] (setting [11]), in assay [2] (setting [12]) and in assay [3] (setting [14]) was 1.00 each time. Besides, the MIC came out at 5000 µg/mL in assay [1] (ATCC16404, 72 h, A. niger 16404, PDB, 3 days, 25° C., read-out: MIC of the component acting alone (QA / QB)); 2000 µg/mL in assay [2] (setting [13]); 3000 µg/mL in assay [3] (ATCC10231, C. albicans 10231, PDB, 48 hours, 25° C., read-out: MIC of the component acting alone (QA / QB)).
For the compound `CC(C)(C)CC(C)(C)c1ccc(OCCOCC[N+](C)(C)Cc2ccccc2)cc1` [Benzethonium chloride], the “Qb (Second Component B)” value came to 10 in assay [1] (A=MBIT, B=Benzethonium chloride (Hyamine 1622), A. niger 16404 - PDB, 4 days); 20 in assay [2] (A=MBIT, B=Benzethonium chloride (Hyamine 1622), E. coli 8739 - M9GY, 24 hours); 4 in assay [3] (A=MBIT, B=Benzethonium chloride (Hyamine 1622), C. albicans 10231 - PDB, 24 hours).
For the compound `OCCCCO` [Butylene glycol], the figures for the “Qb (Second Component B)” value in assay [1], in assay [2] and in assay [3] were 10000, 20000 and 20000, respectively. The “SI (synergy index)” value in assay [1], in assay [2] and in assay [3] was 1.00 throughout. The MIC is 10000 µg/mL in assay [1] (ATCC16404, 72 h, read-out: MIC of the component acting alone (QA / QB)); 20000 µg/mL in assay [2] (ATCC8739, 48 h, read-out: MIC of the component acting alone (QA / QB)); 20000 µg/mL in assay [3] (ATCC10231, 24 h, read-out: MIC of the component acting alone (QA / QB)).
Take `CCOC(=O)c1ccc(O)cc1` [Ethylparaben]: the “SI (synergy index)” value in assay [1] (A. niger 16404, PDB, 7 days) is 1.00; in assay [2] (E. coli 8739, M9GY, 24 hours) it was 1.00; in assay [3] (setting [17]) it was 1.00. Moreover, the MIC in assay [1] (ATCC16404, 168 h, A. niger 16404, PDB, 7 days, 25° C., read-out: MIC of the component acting alone (QA / QB)) turned out to be 800 µg/mL; in assay [1] (setting [15]), 800 µg/mL; in assay [2] (setting [13]) it was 2000 µg/mL; in assay [2] (setting [16]), 2000 µg/mL; in assay [3] (ATCC10231, C. albicans 10231, PDB, 24 hours, 25° C., read-out: MIC of the component acting alone (QA / QB)), 800 µg/mL; in assay [3] (setting [18]) it was 2000 µg/mL.
Take `O=c1[nH]sc2ccccc12` [Benzisothiazolinone, 1,2-benzisothiazolin-3-one]: the “MIC of the component acting alone (QA / QB)” value in assay [1] (setting [7]) came to 100 ppm; in assay [2] (E. coli 8739, M9GY, 72 hours, 30° C.) it was 8 ppm; in assay [3] (C. albicans 10231, PDB, 48 hours, 25° C.), 30 ppm. Also, the “Qb (Second Component B)” value was 300 in assay [1] (setting [19]), 20 in assay [2] (setting [20]) and 30 in assay [3] (setting [21]). In addition, the “SI (synergy index)” value in assay [1] (setting [19]), in assay [2] (setting [20]) and in assay [3] (setting [21]) was 1.00 throughout.
As for `O=C(O)CN(CCN(CC(=O)O)CC(=O)O)CC(=O)O` [EDTA, Ethylenediamine tetraacetic acid], the “Qb (Second Component B = EDTA)” value in assay [1] came out at 1600; in assay [2], 40000; in assay [3] it was 600. For the same compound, the SI in assay [1] (A. niger 16404 - PDB, 7 days, BBIT + EDTA) is given as 1.00; in assay [2] (E. coli 8739 - M9GY, 72 hours, BBIT + EDTA) it was 1.00; in assay [3] (C. albicans 10231 - PDB, 24 hours, BBIT + EDTA) it was 1.00.
As to `CC(=O)C1C(=O)C=C(C)OC1=O` (stereo not drawn) [Dehydroacetic acid, sodium salt], the “SI (synergy index)” value in assay [1] (A. niger 16404, PDB, 7 days) is given as 1.00; in assay [2] (E. coli 8739, M9GY, 24 hours), 1.00; in assay [3] (setting [17]), 1.00. In addition, the results for the MIC in assay [1] (setting [15]), in assay [2] (setting [16]) and in assay [3] (setting [18]) were 200 µg/mL, 20000 µg/mL and 40 µg/mL, respectively.
As for `CC(=O)C1C(=O)C=C(C)OC1=O` (stereo not drawn) [dehydroacetic acid, sodium salt], the SI in assay [1] (A. niger 16404 - PDB, 7 days, BBIT with SDHA) was found to be 1.00; in assay [2] (E. coli 8739 - M9GY, 24 hours, BBIT with SDHA), 1.00; in assay [3] (C. albicans 10231 - PDB, 24 hours, BBIT with SDHA) it was 1.00.
On to `COC(=O)c1ccc(O)cc1` [Methylparaben], for which the “SI (synergy index)” value in assay [1] (A. niger 16404, PDB, 7 days) came out at 1.00; in assay [2] (E. coli 8739, M9GY, 24 hours), 1.00; in assay [3] (C. albicans 10231, PDB, 48 hours) it was 1.00. Moreover, the SI is on record as 1.00 in assay [1] (A. niger 16404 - PDB, 3 days, BBIT with Methylparaben); 1.00 in assay [2] (E. coli 8739 - M9GY, 72 hours, BBIT with Methylparaben); 1.00 in assay [3] (C. albicans 10231 - PDB, 24 hours, BBIT with Methylparaben). The MIC in assay [1] (setting [15]) was 800 µg/mL; in assay [2] (setting [16]) it was 2000 µg/mL; in assay [3] (ATCC10231, C. albicans 10231, PDB, 48 hours, alone where Qa = 0, otherwise in the mixture, read-out: Qb (concentration of second component producing the end point, MIC)) it was 2000 µg/mL.
